The conditions of data set [1]: instrument: DT, stepped-field.
For data set [2] the following is noted: instrument: DT, single field, calibrated with Agilent tune mix (Agilent).

Each structure is given as a SMILES string.

As to `O=c1[nH]cc(CO)c(=O)[nH]1` [5-Hydroxymethyluracil], the “collision cross section (N2)” value in data set [1] ([M+Na]+) is recorded as 142.06 Å²; in data set [2] ([M-H]-), 119.21 Å². As for `Cc1cn([C@@H]2O[C@H](CO)[C@@H](O)[C@H]2O)c(=O)nc1N` [5-Methylcytidine], the “collision cross section (N2)” value in data set [1] ([M+H]+) is given as 157.51 Å²; in data set [1] ([M+Na]+), 168.97 Å²; in data set [2] ([M+H]+), 157.4 Å²; in data set [2] ([M-H]-) it was 152.63 Å². Take `N[C@@H](CS)C(=O)O` [L-Cysteine]: the “collision cross section (N2)” value stood at 149.57 Å² in data set [1] ([M+H]+) and 151.34 Å² in data set [1] ([M+Na]+). The like results for `CS(=N)(=O)CC[C@H](N)C(=O)O` (stereo partly drawn) [L-Methionine sulfoximine] were, in that order, 139.3 Å² and 143.1 Å².

In the case of `N[C@@H](Cn1ccc(=O)c(O)c1)C(=O)O` [L-Mimosine], the “collision cross section (N2)” value in data set [1] ([M+H]+) amounted to 143.47 Å². `O=C(CO)[C@@H](O)[C@@H](O)CO` [L-Ribulose]: the “collision cross section (N2)” value in data set [1] ([M+Na]+) stood at 132.81 Å².

As for `O=C(O)[C@H](O)[C@@H](O)CO` [L-Threonic Acid], in data set [1] ([M+Na]+), the “collision cross section (N2)” value is recorded as 136.93 Å².

For the molecule `N[C@H](CO)Cc1cnc[nH]1` [L-histidinol], the “collision cross section (N2)” value was determined as 130.9 Å² in data set [1] ([M+H]+) and 136.57 Å² in data set [1] ([M+Na]+). As to `CCCCCCCCCCCCC(=O)OCC(O)COP(=O)([O-])OCC[N+](C)(C)C` (centres undefined) [LPC 13:0], the entries for the “collision cross section (N2)” value in data set [1] ([M+H]+) and in data set [1] ([M+Na]+) were 220.71 Å² and 225.41 Å², respectively. Regarding `CCCCCCCCCCCCCC(=O)OC[C@@H](O)COP(=O)([O-])OCC[N+](C)(C)C` [LPC 14:0], the “collision cross section (N2)” value in data set [1] ([M+H]+) turned out to be 222 Å²; in data set [1] ([M+Na]+) it was 225.77 Å². As for `CCCCCCCCCCCCCCCCCCC(=O)OCC(O)COP(=O)([O-])OCC[N+](C)(C)C` (centres undefined) [LPC 19:0], the “collision cross section (N2)” value in data set [1] ([M+Na]+) stood at 244.1 Å². As to `CCCCCCCCCCCCCCCCCCCCCCCC(=O)OC[C@@H](O)COP(=O)([O-])OCC[N+](C)(C)C` [LPC(24:0)], in data set [1] ([M+Na]+), the “collision cross section (N2)” value stood at 262.43 Å². Take `CC(=O)N[C@H]1[C@H](O[C@H]2[C@@H](O)[C@@H](CO)O[C@@H](O[C@H]3[C@H](O)[C@@H](O)C(O)O[C@@H]3CO)[C@@H]2O)O[C@H](CO)[C@@H](O)[C@@H]1O[C@@H]1O[C@H](CO)[C@H](O)[C@H](O)[C@H]1O` (some centres undefined) [Lacto-N-Tetraose]: the “collision cross section (N2)” value in data set [1] ([M+Na]+) is recorded as 239.18 Å².

In the case of `CC(=O)NC1[C@H](OC2[C@@H](O)[C@H](OC([C@H](O)CO)[C@@H](O)[C@@H](O)C=O)O[C@H](COC3O[C@H](CO)[C@@H](O[C@@H]4O[C@H](CO)[C@H](O)[C@H](O)[C@H]4O)[C@H](O)[C@H]3NC(C)=O)[C@H]2O)O[C@H](CO)[C@@H](O)[C@@H]1OC1O[C@H](CO)[C@H](O)[C@H](O)[C@H]1O` (some centres undefined) [Lacto-N-hexaose], the “collision cross section (N2)” value in data set [1] ([M+Na]+) is listed as 301.6 Å².

Turning to `CCCCC/C=C\C\C=C/C=C/C=C/[C@@H](SC[C@H](N)C(=O)NCC(=O)O)[C@@H](O)CCCC(=O)O` [Leukotriene D4], the “collision cross section (N2)” value in data set [1] ([M+H]+) is on record as 234.1 Å²; in data set [1] ([M+Na]+), 238.7 Å². For the molecule `CCCCC/C=C\C\C=C/C=C/C=C/[C@@H](SC[C@H](N)C(=O)O)[C@@H](O)CCCC(=O)O` [Leukotriene E4], the “collision cross section (N2)” value in data set [1] ([M+H]+) is 213.2 Å²; in data set [1] ([M+Na]+) it was 227.9 Å². Regarding `CCCCCCCCCCCCCCCCCCCCCCCC(=O)O` [Lignoceric Acid], the “collision cross section (N2)” value in data set [1] ([M+Na]+) came out at 216.86 Å². Take `C=CC(C)(O)CCC=C(C)C` (centres undefined) [Linalool]: the “collision cross section (N2)” value in data set [1] ([M+Na]+) was determined as 140.55 Å². Take `COC(=O)C1=CO[C@@H](O[C@@H]2O[C@H](CO)[C@@H](O)[C@H](O)[C@H]2O)[C@@H]2[C@@H](C)[C@@H](O)C[C@H]12` [Loganin]: the “collision cross section (N2)” value in data set [1] ([M+Na]+) is reported as 195.65 Å². As for `OC[C@H]1O[C@H](O[C@H]2[C@H](O)[C@@H](O)[C@@H](O[C@H]3[C@H](O)[C@@H](O)[C@@H](O[C@H]4[C@H](O)[C@@H](O)[C@@H](O[C@H]5[C@H](O)[C@@H](O)[C@@H](O[C@H]6[C@H](O)[C@@H](O)C(O)O[C@@H]6CO)O[C@@H]5CO)O[C@@H]4CO)O[C@@H]3CO)O[C@@H]2CO)[C@H](O)[C@@H](O)[C@@H]1O` (some centres undefined) [Maltohexaose], the “collision cross section (N2)” value in data set [1] ([M+Na]+) is recorded as 279.7 Å².

Regarding `OC[C@H]1O[C@H](O[C@H]2[C@H](O)[C@@H](O)[C@@H](O[C@H]3[C@H](O)[C@@H](O)[C@@H](O[C@H]4[C@H](O)[C@@H](O)[C@@H](O)O[C@@H]4CO)O[C@@H]3CO)O[C@@H]2CO)[C@H](O)[C@@H](O)[C@@H]1O` [Maltotetraose], the “collision cross section (N2)” value in data set [1] ([M+Na]+) was found to be 230.47 Å². In the case of `OC[C@H]1O[C@@H](O[C@H]2[C@H](O)[C@H](O)[C@H](O[C@H]3[C@H](O)[C@H](O)[C@H](O[C@H]4[C@H](O)[C@H](O)[C@H](O[C@H]5[C@H](O)[C@H](O)[C@H](O[C@H]6[C@H](O)[C@H](O)C(O)O[C@@H]6CO)O[C@@H]5CO)O[C@@H]4CO)O[C@@H]3CO)O[C@@H]2CO)[C@@H](O)[C@@H](O)[C@@H]1O` (some centres undefined) [Mannohexaose], in data set [1] ([M+Na]+), the “collision cross section (N2)” value worked out at 281.7 Å². For the molecule `CCCCC/C=C\C/C=C\CCCCCCCC(=O)OC` [Methyl Linoleate], in data set [1] ([M+H]+), the “collision cross section (N2)” value stood at 187.2 Å².

Regarding `C[C@@](O)(CCO)CC(=O)O` [Mevalonic Acid], in data set [1] ([M+Na]+), the “collision cross section (N2)” value came to 137.7 Å². On the same count and under the same terms, under `CC1(O)CCOC(=O)C1` (centres undefined) [Mevalonolactone] stands 143.67 Å². For `C=CCc1cc(OC)c2c(c1)OCO2` [Myristicin], in data set [1] ([M+H]+), the “collision cross section (N2)” value was determined as 141.69 Å².

As for `CC(=O)Nc1ccc(S(=O)(=O)Nc2cc(C)on2)cc1` [N-Acetyl Sulfamethoxazole], the “collision cross section (N2)” value in data set [1] ([M+H]+) came to 171.45 Å²; in data set [1] ([M+Na]+) it was 178.52 Å².

Regarding `CN[C@@H](CCC(=O)O)C(=O)O` [N-Methyl-L-glutamate], the “collision cross section (N2)” value in data set [1] ([M+H]+) is given as 133.71 Å². For the molecule `c1ccc2ccccc2c1` [Naphthalene], in data set [1] ([M+H]+), the “collision cross section (N2)” value was found to be 120.28 Å². `NC(=O)c1ccc[n+]([C@@H]2O[C@H](COP(=O)(O)OP(=O)(O)OC[C@H]3O[C@@H](n4cnc5c(N)ncnc54)[C@H](O)[C@@H]3O)[C@@H](O)[C@H]2O)c1` [Nicotinamide Adenine Dinucleotide (NAD+)]: the “collision cross section (N2)” value in data set [1] ([M+H]+) is 241.93 Å². `CCCCCCCC/C=C\CCCCCCCC(=O)OC(CC(=O)[O-])C[N+](C)(C)C` (centres undefined) [Oleoylcarnitine]: the “collision cross section (N2)” value in data set [1] ([M+H]+) was determined as 218.73 Å²; in data set [1] ([M+Na]+), 228.6 Å².

As for `O=C(O)CC(=O)C(=O)O` [Oxaloacetic Acid], the “collision cross section (N2)” value in data set [1] ([M+H]+) is 139.45 Å².

As for `CCCCCCCCCCCCCCCC(=O)O[C@H](COC(=O)CCCCCCCCCCC)COP(=O)(O)OC[C@H](N)C(=O)O` [PS(14:0/14:0)], the “collision cross section (N2)” value in data set [1] ([M+Na]+) was determined as 247.83 Å². With `CCCCCCCCCCCCCCCC(=O)OC(CC(=O)[O-])C[N+](C)(C)C` (centres undefined) [Palmitoylcarnitine], the “collision cross section (N2)” value in data set [1] ([M+H]+) came to 216.1 Å²; in data set [1] ([M+Na]+), 230.37 Å². As to `Cn1c(=O)[nH]c2ncn(C)c2c1=O` [Paraxanthine], the “collision cross section (N2)” value in data set [1] ([M+H]+) is 135.63 Å². On to `CCC(CC)Nc1c([N+](=O)[O-])cc(C)c(C)c1[N+](=O)[O-]` [Pendimethalin], for which the entries for the “collision cross section (N2)” value in data set [1] ([M+H]+) and in data set [1] ([M+Na]+) were 162.6 Å² and 187.77 Å², respectively.

For `Nc1c(Cl)c(Cl)nc(C(=O)O)c1Cl` [Picloram], the figures for the “collision cross section (N2)” value in data set [1] ([M+H]+) and in data set [1] ([M+Na]+) were 142.83 Å² and 156.37 Å², respectively. For `c1cn[nH]c1` [Pyrazole], in data set [1] ([M+H]+), the “collision cross section (N2)” value worked out at 125.47 Å². Consider `Cc1ncc(COP(=O)(O)O)c(C=O)c1O` [Pyridoxal 5'-Phosphate], for which the “collision cross section (N2)” value in data set [1] ([M+H]+) is recorded as 154.76 Å²; in data set [1] ([M+Na]+), 165.05 Å². Take `O=P(O)(O)OP(=O)(O)O` [Pyrophosphoric Acid]: the “collision cross section (N2)” value in data set [1] ([M+Na]+) was 145.58 Å².

Take `O=C(O)C1(O)C[C@@H](O)C(O)[C@H](O)C1` (some centres undefined) [Quinic Acid]: the “collision cross section (N2)” value is 146.35 Å² in data set [1] ([M+H]+) and 153.72 Å² in data set [1] ([M+Na]+). Turning to `CC/C=C\C[C@H](O)[C@H](O)/C=C/C=C/C=C\C=C\[C@@H](O)C/C=C\CCC(=O)O` [Resolvin D2], the “collision cross section (N2)” value in data set [1] ([M+Na]+) was 200.6 Å². For the molecule `CCCCCCCCCCCCC=CC[C@@H](O)[C@H](COP(=O)([O-])OCC[N+](C)(C)C)NC(=O)CCCCCCCCCCCCCCCC` [SM(d18:1/17:0)], the “collision cross section (N2)” value is listed as 290.12 Å² in data set [1] ([M+H]+) and 291.89 Å² in data set [1] ([M+Na]+). For the molecule `O=C[C@H](O[C@@H]1O[C@H](CO)[C@@H](O)[C@H](O)[C@H]1O)[C@@H](O)[C@H](O)[C@H](O)CO` [Sophorose], in data set [1] ([M+Na]+), the “collision cross section (N2)” value turned out to be 183.57 Å². Turning to `CCNc1nc(NC(C)(C)C)nc(SC)n1` [Terbutryn], the “collision cross section (N2)” value in data set [1] ([M+H]+) worked out at 161.23 Å².

In the case of `CC/C=C\C[C@H](O)/C=C/[C@H]1OC(O)C[C@H](O)[C@@H]1C/C=C\CCCC(=O)O` (some centres undefined) [Thromboxane B3], the “collision cross section (N2)” value in data set [1] ([M+Na]+) is recorded as 197.33 Å². Consider `C/C=C(\C)C(=O)NCC(=O)O` [Tiglyl Glycine], for which the “collision cross section (N2)” value in data set [1] ([M+Na]+) is listed as 146.68 Å². With `O=C(O)[C@@H]1C[C@@H](O)CN1` [Trans-4-Hydroxy-L-proline], the “collision cross section (N2)” value in data set [1] ([M+H]+) turned out to be 130.23 Å².

`O=C(O)/C=C(\CC(=O)O)C(=O)O` [Trans-Aconitic Acid]: the results for the “collision cross section (N2)” value in data set [1] ([M+H]+) and in data set [1] ([M+Na]+) were 153.02 Å² and 149.13 Å², respectively. Take `O=c1[nH]c(=O)c2[nH]c(=O)[nH]c2[nH]1` [Uric Acid]: the figures for the “collision cross section (N2)” value in data set [1] ([M+H]+) and in data set [1] ([M+Na]+) were 131 Å² and 143.5 Å², respectively. For `OC1OC[C@@H](O[C@@H]2OC[C@@H](O)[C@H](O)[C@H]2O)[C@H](O)[C@H]1O` (some centres undefined) [Xylobiose], the “collision cross section (N2)” value in data set [1] ([M+Na]+) is 167.4 Å².

`C[N+](C)(C)CCOP(=O)([O-])OC[C@H](O)CO` [sn-Glycero-3-phosphocholine]: the “collision cross section (N2)” value was determined as 157.17 Å² in data set [1] ([M+H]+) and 161.8 Å² in data set [1] ([M+Na]+).
